Laboratory results from the supplement of paper PMC10307832.

Key:
Test in all cases: relative viability (nuclei count vs DMSO), 5 days (fraction); higher = more cells survive
Doramapimod + OSI-027 = compound: Cc1ccc(-n2nc(C(C)(C)C)cc2NC(=O)Nc2ccc(OCCN3CCOCC3)c3ccccc23)cc1 [Doramapimod] + COc1cccc2cc(-c3nc([C@H]4CC[C@H](C(=O)O)CC4)n4ncnc(N)c34)[nH]c12 [OSI-027] (partner 0.5 µM)
Method in brief: (§1)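 Lung cancer cell lines in 1536-well plates were dosed by pin tool the day after seeding, either with one drug alone or with a fixed anchor-drug dose plus five library-drug doses (not always all listed) in √10 steps. After 5 days, cells were fixed and their nuclei stained in one step (final 0.05% Triton X-100, 1% formaldehyde, 1 ug/ml Hoechst), then counted on 4× images. Relative viability is the nuclei count in treated wells divided by that in vehicle wells. Values are medians of duplicate plates.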

RAF265 + Palbociclib = compound: Cn1c(Nc2ccc(C(F)(F)F)cc2)nc2cc(Oc3ccnc(-c4ncc(C(F)(F)F)[nH]4)c3)ccc21 [RAF265] + CC(=O)c1c(C)c2cnc(Nc3ccc(N4CCNCC4)cn3)nc2n(C2CCCC2)c1=O [Palbociclib] (partner 0.5 µM)
Method in brief: as §1

RAF265 + Pictilisib = compound: Cn1c(Nc2ccc(C(F)(F)F)cc2)nc2cc(Oc3ccnc(-c4ncc(C(F)(F)F)[nH]4)c3)ccc21 [RAF265] + CS(=O)(=O)N1CCN(Cc2cc3nc(-c4cccc5[nH]ncc45)nc(N4CCOCC4)c3s2)CC1 [Pictilisib] (partner 1 µM)
Method in brief: as §1

RAF265 + Foretinib = compound: Cn1c(Nc2ccc(C(F)(F)F)cc2)nc2cc(Oc3ccnc(-c4ncc(C(F)(F)F)[nH]4)c3)ccc21 [RAF265] + COc1cc2c(Oc3ccc(NC(=O)C4(C(=O)Nc5ccc(F)cc5)CC4)cc3F)ccnc2cc1OCCCN1CCOCC1 [Foretinib] (partner 0.25 µM)
Method in brief: as §1

Cell Line	relative viability (Doramapimod + OSI-027; first compound 0.02 µM)	relative viability (Doramapimod + OSI-027; first compound 0.06325 µM)	relative viability (Doramapimod + OSI-027; first compound 0.2 µM)	relative viability (Doramapimod + OSI-027; first compound 0.6325 µM)	relative viability (Doramapimod + OSI-027; first compound 2 µM)	relative viability (RAF265 + Palbociclib; first compound 0.01 µM)	relative viability (RAF265 + Palbociclib; first compound 0.03162 µM)	relative viability (RAF265 + Palbociclib; first compound 0.1 µM)	relative viability (RAF265 + Palbociclib; first compound 0.3162 µM)	relative viability (RAF265 + Palbociclib; first compound 1 µM)	relative viability (RAF265 + Pictilisib; first compound 0.01 µM)	relative viability (RAF265 + Pictilisib; first compound 0.03162 µM)	relative viability (RAF265 + Pictilisib; first compound 0.1 µM)	relative viability (RAF265 + Pictilisib; first compound 0.3162 µM)	relative viability (RAF265 + Pictilisib; first compound 1 µM)	relative viability (RAF265 + Foretinib; first compound 0.01 µM)	relative viability (RAF265 + Foretinib; first compound 0.03162 µM)	relative viability (RAF265 + Foretinib; first compound 0.1 µM)	relative viability (RAF265 + Foretinib; first compound 0.3162 µM)	relative viability (RAF265 + Foretinib; first compound 1 µM)
NCI-H2009	0.657	0.72	0.773	0.765	0.587	0.264	0.224	0.162	0.17	0.144	0.884	0.539	0.444	0.438	0.288	1.29	1.25	1.14	1.1	0.658
NCI-H2023	0.362	0.362	0.369	0.479	0.301	0.411	0.34	0.37	0.291	0.268	0.243	0.212	0.272	0.152	0.214	0.86	0.875	0.893		0.553
NCI-H2085	0.645	0.706	0.688	0.698	0.544	0.49	0.477	0.483	0.506	0.52	0.407	0.478	0.502	0.437	0.368	0.859	0.929	0.957	0.987	1.06
NCI-H2087	0.567	0.449	0.51	0.655	0.506	0.238	0.207	0.181	0.164	0.159	0.96	0.907	0.884	0.46	0.372	0.967	1.1	0.938	0.797	0.663
NCI-H2126	0.79	0.689	0.631	0.71	0.58	0.373	0.354	0.377	0.361	0.365	0.5	0.491	0.491	0.405	0.415	1.16	1.2	1.17	1.11	0.668
NCI-H2170	0.724	0.784	0.716	0.712	0.677	0.398	0.295	0.354	0.26	0.295	0.34	0.283	0.287	0.214	0.239	1.05	0.971	0.978	0.805	0.88
NCI-H2228	0.779	0.513	0.571	0.671	0.388	0.721	0.73	0.818	0.333	0.284	0.539	0.371	0.465	0.208	0.255	0.893	0.819	0.781	0.542	0.386
NCI-H2347	0.509		0.474	0.452	0.423	0.485	0.405	0.406	0.391	0.363	0.789	0.952	0.652	0.629	0.245	0.93	0.971	0.81	0.592	0.803
NCI-H2405	0.654	0.596	0.606	0.74	0.598	0.552	0.497	0.499	0.491	0.282	0.529	0.473	0.397	0.368	0.231	1.03	1.01	1	0.935	0.701
NCI-H3122	0.956	0.853	0.938	1.04	1.01	0.18	0.216	0.19	0.198	0.19	0.586	0.831	0.575	0.452	0.301	0.963	1	1	0.953	0.635
PC-3 [JPC-3]	0.845	0.735	0.742	0.779	0.749	0.55	0.538	0.524	0.437	0.429	0.686	0.676	0.727	0.333	0.417	1.04	1.07	1.12		0.595
PC-14	0.933	0.671	0.872	1.01	0.635	0.47	0.495	0.519		0.35	0.737		0.733		0.312	0.969	1.01	0.928		0.817
RERF-LC-KJ	0.624	0.543	0.603	0.6	0.554	1.06	1.23	1.05	0.885	0.832	0.49	0.236	0.545	0.42	0.23	0.867	0.85	0.891	0.759	0.774
SK-LU-1	0.332	0.382	0.379	0.35	0.383	0.399	0.342	0.33	0.318	0.251	0.688	0.422	0.41	0.297	0.27	0.889	0.615	0.491	0.411	0.318
SK-MES-1	0.643	0.571	0.565	0.573	0.521	0.291	0.233	0.241	0.252	0.204	0.311	0.301	0.218	0.214	0.141	1.04	0.932	0.816	0.529	0.369
SW 1573	0.585	0.514	0.485	0.586	0.352	0.419	0.328	0.312	0.245	0.215	0.597	0.445	0.542	0.399	0.221	1	1.01	0.887	0.792	0.732
